System: 967376-340-R-J2-PDC multicell spheroid viability
Assay: Anticancer human tumor 967376-340-R-J2-PDC patient-derived colon adenocarcinoma cell line growth inhibition [PI3K]
Conditions: for IC50: curve of first compound; for viability, T/C: stronger effect = lower value
How it was run: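 Multi-cell spheroids combine tumor cells with HUVEC and human MSCs, treated with targeted agents alone or with inavolisib, alpelisib, duvelisib or copanlisib. Concentrations fall in half-log steps from at or near clinical Cmax, or from 10 microM where Cmax is unknown; viability read-out.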

[1] = second compound 0.0316 µM, first compound 0.0316 µM
[2] = second compound 0.0316 µM, first compound 0.1 µM
[3] = second compound 0.0316 µM, first compound 0.316 µM
[4] = second compound 0.0316 µM, first compound 1 µM
[5] = second compound 0.0316 µM, first compound 3.16 µM
[6] = second compound 0.0316 µM, first compound 10 µM
[7] = second compound 0.1 µM, first compound 0.0316 µM
[8] = second compound 0.1 µM, first compound 0.1 µM
[9] = second compound 0.1 µM, first compound 0.316 µM
[10] = second compound 0.1 µM, first compound 1 µM
[11] = second compound 0.1 µM, first compound 3.16 µM
[12] = second compound 0.1 µM, first compound 10 µM
[13] = second compound 0.316 µM, first compound 0.0316 µM
[14] = second compound 0.316 µM, first compound 0.1 µM
[15] = second compound 0.316 µM, first compound 0.316 µM
[16] = second compound 0.316 µM, first compound 1 µM
[17] = second compound 0.316 µM, first compound 3.16 µM
[18] = second compound 0.316 µM, first compound 10 µM
[19] = second compound 1 µM, first compound 0.0316 µM
[20] = second compound 1 µM, first compound 0.1 µM
[21] = second compound 1 µM, first compound 0.316 µM
[22] = second compound 1 µM, first compound 1 µM
[23] = second compound 1 µM, first compound 3.16 µM
[24] = second compound 1 µM, first compound 10 µM
[25] = second compound 3.16 µM, first compound 0.0316 µM
[26] = second compound 3.16 µM, first compound 0.1 µM
[27] = second compound 3.16 µM, first compound 0.316 µM
[28] = second compound 3.16 µM, first compound 1 µM
[29] = second compound 3.16 µM, first compound 3.16 µM
[30] = second compound 3.16 µM, first compound 10 µM
[31] = second compound 10 µM, first compound 0.0316 µM
[32] = second compound 10 µM, first compound 0.1 µM
[33] = second compound 10 µM, first compound 0.316 µM
[34] = second compound 10 µM, first compound 1 µM
[35] = second compound 10 µM, first compound 3.16 µM
[36] = second compound 10 µM, first compound 10 µM
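Also: spheroids exposed to agents for 7 days before read-out.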
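For viability, T/C in this document: luminescence used as surrogate of cell viability.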

In the case of `CC(C)NCC(C(=O)N1CCN(c2ncnc3c2C(C)CC3O)CC1)c1ccc(Cl)cc1` (stereo not drawn) + Cc1nc(NC(=O)N2CCCC2C(N)=O)sc1-c1ccnc(C(C)(C)C(F)(F)F)c1, the IC50 (second compound 0.0316 µM) is reported as greater than 10 µM, the IC50 (second compound 0.1 µM) is reported as greater than 10 µM and the IC50 (second compound 0.316 µM) is reported as greater than 10 µM. It also gave an IC50 (second compound 1 µM) greater than 10 µM, an IC50 (second compound 3.16 µM) greater than 10 µM and an IC50 (second compound 10 µM) greater than 10 µM. It also gave a viability, T/C [1] of 118%, a viability, T/C [2] of 100% and a viability, T/C [3] of 115%. For the same compound, the viability, T/C [4] was 80.5%, the viability, T/C [5] was 77.8% and the viability, T/C [6] was 80.8%. For the same compound, the viability, T/C [7] was 96.4%, the viability, T/C [8] was 82.3% and the viability, T/C [9] was 85.1%. The viability, T/C [10] was 70.3%, the viability, T/C [11] was 68.4% and the viability, T/C [12] was 87%. The viability, T/C [13] was 88.6%, the viability, T/C [14] was 78.6% and the viability, T/C [15] was 65.5%. For the same compound, the viability, T/C [16] was 81.1%, the viability, T/C [17] was 84% and the viability, T/C [18] was 70%. For the same compound, the viability, T/C [19] was 62.3%, the viability, T/C [20] was 64.2% and the viability, T/C [21] was 73%. It also gave a viability, T/C [22] of 78.4%, a viability, T/C [23] of 72.3% and a viability, T/C [24] of 63.5%. For the same compound, the viability, T/C [25] was 67.1%, the viability, T/C [26] was 68% and the viability, T/C [27] was 56.8%. For the same compound, the viability, T/C [28] was 50.7%, the viability, T/C [29] was 62.4% and the viability, T/C [30] was 57.4%. The viability, T/C [31] was 56%, the viability, T/C [32] was 54.8% and the viability, T/C [33] was 52.4%. For the same compound, the viability, T/C [34] was 49.1%, the viability, T/C [35] was 55.6% and the viability, T/C [36] was 50.5%.

`CCN1CCN(Cc2ccc(Nc3ncc(F)c(-c4cc(F)c5nc(C)n(C(C)C)c5c4)n3)nc2)CC1` + Cc1nc(NC(=O)N2CCCC2C(N)=O)sc1-c1ccnc(C(C)(C)C(F)(F)F)c1 was tested, and the IC50 (second compound 0.0316 µM) was greater than 1 µM, the IC50 (second compound 0.1 µM) was greater than 1 µM and the IC50 (second compound 0.316 µM) was greater than 1 µM. The IC50 (second compound 1 µM) was 0.162 µM, the IC50 (second compound 3.16 µM) was 0.0774 µM and the IC50 (second compound 10 µM) was less than 0.00316 µM. The viability, T/C (second compound 0.0316 µM, first compound 0.00316 µM) was 107%, the viability, T/C (second compound 0.0316 µM, first compound 0.01 µM) was 64.6% and the viability, T/C [1] was 90.9%. It also gave a viability, T/C [2] of 77%, a viability, T/C [3] of 77.8% and a viability, T/C [4] of 64.7%. It also gave a viability, T/C (second compound 0.1 µM, first compound 0.00316 µM) of 109%, a viability, T/C (second compound 0.1 µM, first compound 0.01 µM) of 72.5% and a viability, T/C [7] of 90.5%. The viability, T/C [8] was 67.4%, the viability, T/C [9] was 54.3% and the viability, T/C [10] was 58.9%. The viability, T/C (second compound 0.316 µM, first compound 0.00316 µM) was 75.8%, the viability, T/C (second compound 0.316 µM, first compound 0.01 µM) was 82.1% and the viability, T/C [13] was 64.2%. It also gave a viability, T/C [14] of 58.4%, a viability, T/C [15] of 60.8% and a viability, T/C [16] of 57.4%. The viability, T/C (second compound 1 µM, first compound 0.00316 µM) was 56%, the viability, T/C (second compound 1 µM, first compound 0.01 µM) was 72% and the viability, T/C [19] was 58.4%. For the same compound, the viability, T/C [20] was 46.1%, the viability, T/C [21] was 49.4% and the viability, T/C [22] was 32.8%. The viability, T/C (second compound 3.16 µM, first compound 0.00316 µM) was 62.3%, the viability, T/C (second compound 3.16 µM, first compound 0.01 µM) was 78.5% and the viability, T/C [25] was 59%. For the same compound, the viability, T/C [26] was 49%, the viability, T/C [27] was 44.1% and the viability, T/C [28] was 41.5%. It also gave a viability, T/C (second compound 10 µM, first compound 0.00316 µM) of 47.1%, a viability, T/C (second compound 10 µM, first compound 0.01 µM) of 49% and a viability, T/C [31] of 45.4%. For the same compound, the viability, T/C [32] was 37%, the viability, T/C [33] was 40.3% and the viability, T/C [34] was 27.1%.

Work on `Cn1ncc(Cl)c1-c1cc(C(=O)NC(CN)Cc2cccc(F)c2)sc1Cl` (stereo not drawn) + Cc1nc(NC(=O)N2CCCC2C(N)=O)sc1-c1ccnc(C(C)(C)C(F)(F)F)c1 yielded an IC50 (second compound 0.0316 µM) greater than 10 µM, an IC50 (second compound 0.1 µM) of 7.44 µM and an IC50 (second compound 0.316 µM) greater than 10 µM. The IC50 (second compound 1 µM) was 4.6 µM, the IC50 (second compound 3.16 µM) was 5.42 µM and the IC50 (second compound 10 µM) was 0.366 µM. The viability, T/C [1] was 108%, the viability, T/C [2] was 79% and the viability, T/C [3] was 77.8%. The viability, T/C [4] was 72.3%, the viability, T/C [5] was 61.3% and the viability, T/C [6] was 71.4%. For the same compound, the viability, T/C [7] was 75.6%, the viability, T/C [8] was 91% and the viability, T/C [9] was 76.5%. The viability, T/C [10] was 82.6%, the viability, T/C [11] was 75.2% and the viability, T/C [12] was 41.1%. It also gave a viability, T/C [13] of 72.8%, a viability, T/C [14] of 82% and a viability, T/C [15] of 78.1%. For the same compound, the viability, T/C [16] was 89.6%, the viability, T/C [17] was 61.6% and the viability, T/C [18] was 59.9%. It also gave a viability, T/C [19] of 62.2%, a viability, T/C [20] of 83.4% and a viability, T/C [21] of 60.5%. It also gave a viability, T/C [22] of 65%, a viability, T/C [23] of 55.3% and a viability, T/C [24] of 38.9%. It also gave a viability, T/C [25] of 52.2%, a viability, T/C [26] of 55.9% and a viability, T/C [27] of 53.2%. For the same compound, the viability, T/C [28] was 61.3%, the viability, T/C [29] was 52% and the viability, T/C [30] was 42.4%. For the same compound, the viability, T/C [31] was 60.4%, the viability, T/C [32] was 55.6% and the viability, T/C [33] was 51.2%. The viability, T/C [34] was 40.8%, the viability, T/C [35] was 46.7% and the viability, T/C [36] was 32.8%.

Compound `Cn1nccc1Nc1nccc(-c2ccn(C(CO)c3ccc(Cl)c(F)c3)c(=O)c2)n1` (stereo not drawn) + Cc1nc(NC(=O)N2CCCC2C(N)=O)sc1-c1ccnc(C(C)(C)C(F)(F)F)c1 has an IC50 (second compound 0.0316 µM) greater than 10 µM, an IC50 (second compound 0.1 µM) greater than 10 µM and an IC50 (second compound 0.316 µM) greater than 10 µM. The IC50 (second compound 1 µM) was greater than 10 µM, the IC50 (second compound 3.16 µM) was greater than 10 µM and the IC50 (second compound 10 µM) was less than 0.0316 µM. For the same compound, the viability, T/C [1] was 66.3%, the viability, T/C [2] was 104% and the viability, T/C [3] was 97.2%. The viability, T/C [4] was 83.5%, the viability, T/C [5] was 87.3% and the viability, T/C [6] was 85.7%. The viability, T/C [7] was 70.2%, the viability, T/C [8] was 67% and the viability, T/C [9] was 85.1%. For the same compound, the viability, T/C [10] was 76.7%, the viability, T/C [11] was 72.4% and the viability, T/C [12] was 75.5%. For the same compound, the viability, T/C [13] was 65.4%, the viability, T/C [14] was 70.9% and the viability, T/C [15] was 63.8%. The viability, T/C [16] was 82%, the viability, T/C [17] was 84.2% and the viability, T/C [18] was 60.7%. For the same compound, the viability, T/C [19] was 66.6%, the viability, T/C [20] was 61% and the viability, T/C [21] was 60.1%. It also gave a viability, T/C [22] of 67.8%, a viability, T/C [23] of 64.7% and a viability, T/C [24] of 53.5%. The viability, T/C [25] was 46.1%, the viability, T/C [26] was 61.4% and the viability, T/C [27] was 56.3%. It also gave a viability, T/C [28] of 58.5%, a viability, T/C [29] of 60.8% and a viability, T/C [30] of 77.1%. It also gave a viability, T/C [31] of 39.9%, a viability, T/C [32] of 47.6% and a viability, T/C [33] of 42.2%. For the same compound, the viability, T/C [34] was 36.1%, the viability, T/C [35] was 53.7% and the viability, T/C [36] was 32.3%.

From PubChem BioAssay AID1963962 (Molecular Pharmacology Branch, DTP, NCI, 2024)
